# Source: US20150038415A1, “PROCESS FOR THE MANUFACTURING OF A DRUG DELIVERY SYSTEM BASED ON A POLYMER COMPRISING A DISPERSED BIOACTIVE AGENT” (DSM IP Assets B.V., priority 2011, published 2015)
# Entries after “also recorded” stand apart in the source; their conditions may differ.
# Tested on: Nb2 (rat lymphoma) cells
# Assay: Bioactivity of released rHGH by Nb2 cell proliferation assay
# Type: cell-based
# Experimental: Bioactivity of rHGH present in release samples was assessed by measuring its influence on the proliferation of Nb2 (rat lymphoma) cells.^1 1 Bozzola, M. et. al. Evaluation of growth hormone bioactivity using the Nb2 cell bioassay in children with growth disorders. J. Endocrinol Invest.1998, 21, 765-770
# The method used is described below:^2 2 Tanaka. T. et. al. A new sensitive and specific bioassay for lactogenic hormones: measurement of prolactin and growth hormone in human serum. J. Clin. Endocrinol. Metab.1980, 51, 1058-1063 […]
# Cells were then counted with a Guava Easycyte (Millipore) capillary cytometer using Viacount reagent (Millipore) to stain cells, according to the recommendations of the manufacturer. […]
# Samples originating from the release experiments were diluted in incubation medium to reach an expected (according to HPLC quantification) concentration of rHGH between 80 and 280 pg/mL(concentration range in which growth of Nb2 cells is rHGH concentration-dependent). […]
# After incubation, cells were stained with 50 uL Viacount reagent and viable cells were counted by capillary cytometry.
# Bioactivity of rHGH released from the fibers was measured through use of the cell-proliferation assay described above. Release samples were introduced to the cell culture medium and the effect of rHGH on cell proliferation was measured via cell counting with capillary cytometry.
substance,measurement,setting,value
"rHGH: lyophilized powder of recombinant human growth hormone, dispersed in PEA-III-Ac-Bz film cut into fibers",Bioactivity of rHGH released from the fibers (cell proliferation assay),"rHGH released from PEA-III-Ac-Bz fibers into release medium (PBS pH 7.4 with BSA and penicillin) at 37° C., Nb2 cells incubated 72 hours",retained; also recorded: bioactive; also recorded: retains its bioactivity
same,Cell response to release samples (cell counting with capillary cytometry),"release samples taken at 1 h, 3 h, 6 h, 24 h & 48 h from PEA-III-Ac-Bz fibers with approximately 1-2 wt % rHGH",positive cell response
